Measurements as given in ChEMBL document CHEMBL4715826, “Selective PPARδ Modulators Improve Mitochondrial Function: Potential Treatment for Duchenne Muscular Dystrophy (DMD)” (ACS Med Chem Lett, 2018).

Tests used:
[1] = Clearance in CD-1 mouse at 3 mg/kg, iv; format: ADME, organism-based; settings: in vivo
[2] = Selectivity index, ratio of EC50 for transactivation of GAL4-fused PPARalpha LBD (unknown origin) transfected in CV1 cells to EC50 for transactivation of GAL4-fused human PPARdelta LBD (128 to residue at C-terminus) transfected in African green monkey CV1 cells by luciferase reporter gene assay
[3] = Half life in CD-1 mouse at 3 mg/kg, iv; format: ADME, organism-based; settings: in vivo
[4] = molecular target: T1, Peroxisome proliferator-activated receptor delta (Homo sapiens, UniProt Q03181)
T1 sequence (Q03181 whole entry): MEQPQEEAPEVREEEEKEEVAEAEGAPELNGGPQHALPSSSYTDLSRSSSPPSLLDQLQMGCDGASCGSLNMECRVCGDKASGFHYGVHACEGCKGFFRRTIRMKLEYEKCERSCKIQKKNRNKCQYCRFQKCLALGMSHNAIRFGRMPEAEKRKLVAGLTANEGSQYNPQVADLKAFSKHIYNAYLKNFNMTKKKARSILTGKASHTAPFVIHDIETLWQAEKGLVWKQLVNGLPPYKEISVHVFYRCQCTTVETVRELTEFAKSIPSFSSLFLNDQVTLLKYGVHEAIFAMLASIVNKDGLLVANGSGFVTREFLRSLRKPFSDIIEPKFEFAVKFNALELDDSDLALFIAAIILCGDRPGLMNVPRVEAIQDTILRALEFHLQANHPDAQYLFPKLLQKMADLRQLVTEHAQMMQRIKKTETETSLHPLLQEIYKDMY
Description: Modulator activity at GAL4-fused human PPARdelta LBD (128 to residue at C-terminus) transfected in African green monkey CV1 cells assessed as receptor transactivation by luciferase reporter gene assay

[5] = AUC in CD-1 mouse at 3 mg/kg, iv; format: ADME, organism-based; set-up: dose 3 mg/kg; settings: in vivo
[6] = molecular target: T2, Peroxisome proliferator-activated receptor gamma (Homo sapiens, UniProt P37231); assay: Modulator activity at GAL4-fused human PPARgamma LBD (unknown origin) transfected in African green monkey CV1 cells assessed as receptor transactivation by luciferase reporter gene assay; format: cell-based, CV-1
T2 sequence (P37231 whole entry): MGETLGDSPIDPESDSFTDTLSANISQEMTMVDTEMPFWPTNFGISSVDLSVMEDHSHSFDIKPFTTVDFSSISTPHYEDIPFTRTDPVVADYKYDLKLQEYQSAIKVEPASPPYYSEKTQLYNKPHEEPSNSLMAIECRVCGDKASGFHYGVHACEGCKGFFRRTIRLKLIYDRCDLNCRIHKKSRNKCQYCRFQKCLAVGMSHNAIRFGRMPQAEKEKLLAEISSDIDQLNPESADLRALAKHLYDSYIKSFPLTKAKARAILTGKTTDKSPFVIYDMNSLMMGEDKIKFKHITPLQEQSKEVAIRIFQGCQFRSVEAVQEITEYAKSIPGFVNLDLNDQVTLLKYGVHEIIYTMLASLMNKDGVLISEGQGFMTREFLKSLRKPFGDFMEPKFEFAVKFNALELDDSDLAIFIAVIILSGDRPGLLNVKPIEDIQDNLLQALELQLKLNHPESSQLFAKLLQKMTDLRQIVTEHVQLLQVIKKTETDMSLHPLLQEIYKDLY

[7] = molecular target: T3, Peroxisome proliferator-activated receptor alpha (Homo sapiens, UniProt Q07869); assay: Modulator activity at GAL4-fused human PPARalpha LBD (unknown origin) transfected in African green monkey CV1 cells assessed as receptor transactivation by luciferase reporter gene assay; format: cell-based, CV-1
T3 sequence (Q07869 whole entry): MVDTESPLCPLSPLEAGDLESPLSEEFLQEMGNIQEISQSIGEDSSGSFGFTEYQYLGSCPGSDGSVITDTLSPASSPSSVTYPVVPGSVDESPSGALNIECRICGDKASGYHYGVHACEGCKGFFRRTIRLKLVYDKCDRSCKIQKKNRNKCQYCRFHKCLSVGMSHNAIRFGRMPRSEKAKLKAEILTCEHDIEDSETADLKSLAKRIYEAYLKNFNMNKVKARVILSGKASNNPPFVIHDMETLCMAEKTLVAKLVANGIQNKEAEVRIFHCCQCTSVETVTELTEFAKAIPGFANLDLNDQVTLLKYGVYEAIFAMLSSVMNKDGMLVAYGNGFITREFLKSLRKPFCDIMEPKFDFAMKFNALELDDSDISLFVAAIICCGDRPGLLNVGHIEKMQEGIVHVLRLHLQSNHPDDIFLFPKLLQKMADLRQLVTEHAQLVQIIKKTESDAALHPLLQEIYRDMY

Compound | clearance [1] [mL/min/kg] | Ratio EC50 [2] | half-life [3] [min] | EC50 [4] [µM] | AUC [5] [ng·h/mL] | EC50 [6] [µM] | EC50 [7] [µM]
C/C(=C\COc1ccccc1Cc1c(C)ncn1-c1ccc(-c2ccco2)cc1)CCC(=O)O | 720 | >1000 | 42 | 0.059 | 70 | > 10 | 
C/C(=C\COc1ccccc1Cn1c(C)cnc1-c1ccc(-c2ccco2)cc1)CCC(=O)O | 160 | >1000 | 30 |  | 300 | > 10 | 1.23
Cc1cnc(-c2ccc(OC(F)F)cc2)n1Cc1ccccc1OCCC[C@@H](C)CC(=O)O |  |  |  |  |  | > 10 | 15.1
Cc1cnc(-c2ccc(-c3ccco3)cc2)n1Cc1ccccc1OCCCCC(C)(C)C(=O)O | 120 |  | 144 |  | 400 | > 10 | 
